These results are taken from patent publication US20120220603A1, “SUBSTITUTED HETEROCYCLIC DERIVATIVES FOR THE TREATMENT OF PAIN AND EPILEPSY” (ZALICUS PHARMACEUTICALS LTD., priority 2009, published 2012).

A short description of data set [1]: Rat Early Pharmacokinetic (EPK) study. The class given is in vivo. To be noted: PO, 3 mg/kg, formulation PG (propylene glycol). As for the experimental part:
Male Sprague-Dawley rats were dosed via oral (PO) gavage in the detailed formulation. Blood samples were collected from the animals at 6 timepoints out to 4 hours post-dose. Pharmacokinetic analysis was performed on the LC-MS/MS measured concentrations for each timepoint of each compound.

A further data set deals with T1, human Nav1.5 channel (Homo sapiens, UniProt Q14524).
T1 construct: expressed in transfected cells; host or cells: HEK cells
T1 sequence (Q14524 whole entry): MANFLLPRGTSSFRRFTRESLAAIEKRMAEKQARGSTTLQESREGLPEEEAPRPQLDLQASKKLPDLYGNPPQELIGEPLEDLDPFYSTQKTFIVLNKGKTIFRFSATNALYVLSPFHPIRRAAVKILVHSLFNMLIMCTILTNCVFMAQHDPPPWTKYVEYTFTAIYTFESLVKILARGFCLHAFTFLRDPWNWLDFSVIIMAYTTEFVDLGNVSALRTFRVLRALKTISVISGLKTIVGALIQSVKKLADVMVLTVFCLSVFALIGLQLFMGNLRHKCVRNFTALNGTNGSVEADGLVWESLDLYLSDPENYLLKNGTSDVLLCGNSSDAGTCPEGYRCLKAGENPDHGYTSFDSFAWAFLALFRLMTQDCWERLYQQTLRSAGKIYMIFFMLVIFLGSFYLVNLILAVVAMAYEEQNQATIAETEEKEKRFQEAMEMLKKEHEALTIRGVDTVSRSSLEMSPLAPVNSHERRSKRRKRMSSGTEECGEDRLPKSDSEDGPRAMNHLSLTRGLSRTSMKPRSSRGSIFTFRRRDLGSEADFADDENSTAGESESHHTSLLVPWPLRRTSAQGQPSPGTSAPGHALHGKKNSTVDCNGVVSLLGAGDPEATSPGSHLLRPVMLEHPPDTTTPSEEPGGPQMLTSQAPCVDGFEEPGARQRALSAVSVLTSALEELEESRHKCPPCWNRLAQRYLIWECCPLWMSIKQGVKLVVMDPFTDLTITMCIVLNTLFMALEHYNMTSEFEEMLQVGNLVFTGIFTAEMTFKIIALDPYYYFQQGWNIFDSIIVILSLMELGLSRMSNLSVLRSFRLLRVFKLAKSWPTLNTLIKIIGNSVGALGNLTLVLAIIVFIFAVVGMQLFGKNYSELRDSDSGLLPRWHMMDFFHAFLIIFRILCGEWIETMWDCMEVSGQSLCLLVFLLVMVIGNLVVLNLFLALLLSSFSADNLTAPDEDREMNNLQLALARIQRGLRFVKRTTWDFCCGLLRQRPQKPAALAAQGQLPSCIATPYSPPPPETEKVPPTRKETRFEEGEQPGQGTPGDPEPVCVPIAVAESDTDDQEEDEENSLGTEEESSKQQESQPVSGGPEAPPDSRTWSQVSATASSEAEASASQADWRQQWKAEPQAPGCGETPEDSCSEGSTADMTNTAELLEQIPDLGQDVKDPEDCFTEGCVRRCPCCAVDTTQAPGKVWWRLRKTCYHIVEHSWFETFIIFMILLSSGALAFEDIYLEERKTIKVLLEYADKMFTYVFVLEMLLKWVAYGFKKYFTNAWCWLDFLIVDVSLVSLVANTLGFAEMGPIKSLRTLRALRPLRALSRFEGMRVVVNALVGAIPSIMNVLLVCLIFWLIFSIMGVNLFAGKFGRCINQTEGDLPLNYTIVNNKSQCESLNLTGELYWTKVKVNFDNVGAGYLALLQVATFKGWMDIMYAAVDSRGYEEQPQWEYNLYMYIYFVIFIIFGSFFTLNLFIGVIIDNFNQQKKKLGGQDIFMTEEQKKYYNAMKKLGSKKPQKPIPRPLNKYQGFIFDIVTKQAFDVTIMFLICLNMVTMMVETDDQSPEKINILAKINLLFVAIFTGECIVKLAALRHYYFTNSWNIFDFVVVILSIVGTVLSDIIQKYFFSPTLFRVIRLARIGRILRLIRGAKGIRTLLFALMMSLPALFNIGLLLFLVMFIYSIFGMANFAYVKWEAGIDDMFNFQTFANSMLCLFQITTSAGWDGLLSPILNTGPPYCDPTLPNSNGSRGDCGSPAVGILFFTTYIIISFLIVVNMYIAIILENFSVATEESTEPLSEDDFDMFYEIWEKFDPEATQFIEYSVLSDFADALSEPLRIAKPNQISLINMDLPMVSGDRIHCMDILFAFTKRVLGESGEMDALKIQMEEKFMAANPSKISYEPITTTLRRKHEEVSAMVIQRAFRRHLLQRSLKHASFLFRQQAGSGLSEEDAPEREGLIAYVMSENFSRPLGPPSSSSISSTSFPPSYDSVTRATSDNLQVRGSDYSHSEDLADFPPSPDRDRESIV
The data set is described as follows: NaV1.5 sodium channel screening assay, PatchXpress automated electrophysiology, cardiac action potential waveform 1 Hz. The class given is cell-based. Conditions: cardiac action potential waveform at 1 Hz; HEK cells; read-out: HNAv 1.5 Cardiac AP 1 Hz IC50. The method, then:
Inhibition of the TTX-resistant NaV1.5 sodium channel, a key cardiac ion channel, can have profound effects on the duration and amplitude of the cardiac action potential and can result in arrhythmias and other heart malfunctions. To assess the potential cardiac liability of compounds at an early stage in the drug discovery process, a NaV1.5 sodium channel screening assay is performed on Molecular Device's PatchXpress™ automated electrophysiology platform. Under voltage-calmp conditions, NaV1.5 currents were recorded from HEK cells expressing the human Nav1.5 channel in the absence and presence of increasing concentrations of the test compound to obtain an IC50 value. The external recording solution contained (in mM): 90 TEACl, 50 NaCl, 1.8 CaCl, 1 MgCl2, 10 HEPES, 10 glucose, adjusted to pH 7.4 with TEA-OH and to 300 mOsm with sucrose (if necessary), while the internal patch pipette solution contained (in mM): 129 CsF, 2 MgCl2, 11 EGTA, 10 HEPES, 3 Na2ATP adjusted to pH 7.2 with CsOH and to 290 mOsm with sucrose (if necessary). NaV1.5 channel currents were evoked using a cardiac action potential waveform at 1 Hz, digitized at 31.25 kHz and low-pass filtered at 12 kHz.

Data set [2] relates to Rat SNL tactile allodynia. The data set is described as follows: L5/L6 spinal nerve ligation (SNL) Chung pain model, tactile allodynia (von Frey). The class given is in vivo. From the text:
The Spinal Nerve Ligation is an animal model representing peripheral nerve injury generating a neuropathic pain syndrome. In this model experimental animals develop the clinical symptoms of tactile allodynia and hyperalgesia. L5/L6 Spinal nerve ligation (SNL) injury was induced using the procedure of Kim and Chung (Kim et al., Pain 50:355-363 (1992)) in male Sprague-Dawley rats (Harlan; Indianapolis, Ind.) weighing 200 to 250 grams.
Anaesthesia was induced with 2% isofluorane in O2 at 2 L/min and maintained with 0.5% isofluorane in O2. Rats were then shaved and aseptically prepared for surgeries. A 2 cm paraspinal incision was made at the level of L4-S2. L4/L5 was exposed by removing the transverse process above the nerves with a small rongeur. The L5 spinal nerve is the larger of the two visible nerves below the transverse process and lies closest to the spine. The L6 spinal nerve is located beneath the corner of the slope bone. A home-made glass Chung rod was used to hook L5 or L6 and a pre-made slip knot of 4.0 silk suture was placed on the tip of the rod just above the nerve and pulled underneath to allow for the tight ligation. The L5 and L6 spinal nerves were tightly ligated distal to the dorsal root ganglion. The incision was closed, and the animals were allowed to recover for 5 days.
Sham control rats underwent the same operation and handling as the experimental animals, but without SNL.
Prior to initiating drug delivery, baseline behavioural testing data is obtained. At selected times after infusion of the Test or Control Article behavioural data can then be collected again.
The assessment of tactile allodynia consisted of measuring the withdrawal threshold of the paw ipsilateral to the site of nerve injury in response to probing with a series of calibrated von Frey filaments (innocuous stimuli). Animals were acclimated to the suspended wire-mesh cages for 30 min before testing. Each von Frey filament was applied perpendicularly to the plantar surface of the ligated paw of rats for 5 sec. A positive response was indicated by a sharp withdrawal of the paw. For rats, the first testing filament is 4.31. Measurements were taken before and after administration of test articles. […] The protocol was repeated until three changes in behaviour were determined (“up and down” method) (Chaplan et al., J. Neurosci. Methods 53:55-63 (1994)). The 50% paw withdrawal threshold was determined as (10^[Xf+kδ])/10,000, where Xf=the value of the last von Frey filament employed, k=Dixon value for the positive/negative pattern, and S=the logarithmic difference between stimuli. The cut-off values for rats were no less than 0.2 g and no higher than 15 g (5.18 filament); for mice no less than 0.03 g and no higher than 2.34 g (4.56 filament). A significant drop of the paw withdrawal threshold compared to the pre-treatment baseline is considered tactile allodynia. […]

The subject of another data set is mice on rotarod. Nature of the data set: Mouse rotarod assay (minimal muscular or neurological impairment). It is filed as in vivo. The method, then: To assess a compound's undesirable side effects (toxicity), animals were monitored for overt signs of impaired neurological or muscular function. In mice, the rotarod procedure (Dunham and Miya, J. Am. Pharmacol. Assoc. 46:208-209 (1957)) is used to disclose minimal muscular or neurological impairment (MMI). When a mouse is placed on a rod that rotates at a speed of 6 rpm, the animal can maintain its equilibrium for long periods of time. The animal is considered toxic if it falls off this rotating rod three times during a 1-min period.

Data set [3] concerns Lamina I/II spinal cord neurons. Nature of the data set: Lamina assay: current-clamp recordings on lamina I/II spinal cord neurons. It is filed as cell-based, rat. Conditions: Lamina I and II, tonic firing neurons, current-clamp. From the text: Male Wistar rats (P6 to P9 for voltage-clamp and P15 to P18 for current-clamp recordings) were anaesthetized through intraperitoneal injection of Inactin (Sigma). The spinal cord was then rapidly dissected out and placed in an ice-cold solution protective sucrose solution containing (in mM): 50 sucrose, 92 NaCl, 15 D-Glucose, 26 NaHCO3, 5 KCl, 1.25 NaH2PO4, 0.5 CaCl2, 7 MgSO4, 1 kynurenic acid, and bubbled with 5% CO2/95% O2. The meninges, dura, and dorsal and ventral roots were then removed from the lumbar region of the spinal cord under a dissecting microscope. The “cleaned” lumbar region of the spinal cord was glued to the vibratome stage and immediately immersed in ice cold, bubbled, sucrose solution. For current-clamp recordings, 300 to 350 μm parasagittal slices were cut to preserve the dendritic arbour of lamina I neurons, while 350 to 400 μm transverse slices were prepared for voltage-clamped […] channel recordings. Slices were allowed to recover for 1 hour at 35° C. in Ringer solution containing (in mM): 125 NaCl, 20 D-Glucose, 26 NaHCO3, 3 KCl, 1.25 NaH2PO4, 2 CaCl2, 1 MgCl2, 1 kynurenic acid, 0.1 picrotoxin, bubbled with 5% CO2/95% O2. The slice recovery chamber was then returned to room temperature (20 to 22° C.) and all recordings were performed at this temperature.
Neurons were visualized using IR-DIC optics (Zeiss Axioskop 2 FS plus, Gottingen, Germany), and neurons from lamina I and the outer layer of lamina II were selected based on their location relative to the substantia gelatinosa layer. Neurons were patch-clamped using borosilicate glass patch pipettes with resistances of 3 to 6 MΩ. Current-clamp recordings of lamina I/II neurons in the intact slice, the external recording solution was the above Ringer solution, while the internal patch pipette solution contained (in mM): 140 KGluconate, 4 NaCl, 10 HEPES, 1 EGTA, 0.5 MgCl2, 4 MgATP, 0.5 Na2GTP, adjusted to pH 7.2 with 5 M KOH and to 290 mOsm with D-Mannitol (if necessary). Only tonic firing neurons were selected for current-clamp experiments, while phasic, delayed onset and single spike neurons were discarded (22). Recordings were digitized at 50 kHz and low-pass filtered at 2.4 kHz.

Data set [4] relates to seizures induced by 6 Hz corneal stimulation in CF1 mice. The data set is described as follows: 6 Hz psychomotor seizure model of partial epilepsy. It is filed as in vivo, mouse. More on the design: Epilepsy 6 Hz (% protected): concentration or dose not given beside the values. To be noted: 32 mA. As for the experimental part: Compounds were evaluated for the protection against seizures induced by a 6 Hz, 0.2 ms rectangular pulse width of 3 s duration, at a stimulus intensity of 32 mA (CC97) applied to the cornea of male CF1 mice (20-30 g) according to procedures described by Barton et al, “Pharmacological Characterization of the 6 Hz Psychomotor Seizure Model of Partial Epilepsy,” Epilepsy Res. 47(3):217-27 (2001). Seizures are characterised by the expression of one or more of the following behaviours: stun, forelimb clonus, twitching of the vibrissae and Straub-tail immediately following electrical stimulation.

For the molecule `O=C(CN1CCNCC1)Nc1cc(C(F)(F)F)cc(C(F)(F)F)c1` [Compound 5, N-(3,5-bis(trifluoromethyl)phenyl)-2-(piperazin-1-yl)acetamide], in data set [1], the “Dose Normalized AUC” value stood at 108 nM·h and the “Dose Normalized Cmax” value turned out to be 48 nM. Besides, the time to peak (Tmax) in data set [1] (male, Sprague-Dawley, blood) is 1.8 h. In addition, the IC50 on human Nav1.5 channel amounted to 40 µM.
Consider `O=C(CC1CCNCC1)Nc1cc(C(F)(F)F)cc(C(F)(F)F)c1` [Compound 19, N-(3,5-bis(trifluoromethyl)phenyl)-2-(piperidin-4-yl)acetamide], for which the “Rat SNL Tactile Allodynia (% Antiallodynia)” value in data set [2] (1 hour) was 47%; in data set [2] (2 hours) it was 39%; in data set [2] (4 hours), 32%. For the same molecule, the “% Impaired” value in the data set with mice on rotarod (0.25 hr) was 0%; with mice on rotarod (0.5 hr) it was 75%; in the data set with mice on rotarod (1 hr), 100%; with mice on rotarod (2 hr) it was 100%; in the data set on mice on rotarod (4 hr), 100%. In data set [3], the “% Spike Change (Mean; % change from control)” value is −30.3%. Moreover, the “Epilepsy 6 Hz (% protected)” value was found to be 100% in data set [4] (0.25 hr); 100% in data set [4] (0.5 hr); 100% in data set [4] (1 hr); 100% in data set [4] (2 hr); 0% in data set [4] (4 hr).
